{"source": "paper PMC3666759", "about": "“ATP Dependent Rotational Motion of Group II Chaperonin Observed by X-ray Single Molecule Tracking” (PLoS ONE, 2013)", "biological_target": "T1, TKS1-Cpn (group II chaperonin from Thermococcus strain KS-1) (Thermococcus sp. JCM 11816, UniProt P61112, D263C/C366S)", "T1 construct": "gene thsA; full-length recombinant chaperonin, purified to homogeneity, double-ring homo-oligomer", "T1 sequence (P61112 whole entry D263C/C366S)": "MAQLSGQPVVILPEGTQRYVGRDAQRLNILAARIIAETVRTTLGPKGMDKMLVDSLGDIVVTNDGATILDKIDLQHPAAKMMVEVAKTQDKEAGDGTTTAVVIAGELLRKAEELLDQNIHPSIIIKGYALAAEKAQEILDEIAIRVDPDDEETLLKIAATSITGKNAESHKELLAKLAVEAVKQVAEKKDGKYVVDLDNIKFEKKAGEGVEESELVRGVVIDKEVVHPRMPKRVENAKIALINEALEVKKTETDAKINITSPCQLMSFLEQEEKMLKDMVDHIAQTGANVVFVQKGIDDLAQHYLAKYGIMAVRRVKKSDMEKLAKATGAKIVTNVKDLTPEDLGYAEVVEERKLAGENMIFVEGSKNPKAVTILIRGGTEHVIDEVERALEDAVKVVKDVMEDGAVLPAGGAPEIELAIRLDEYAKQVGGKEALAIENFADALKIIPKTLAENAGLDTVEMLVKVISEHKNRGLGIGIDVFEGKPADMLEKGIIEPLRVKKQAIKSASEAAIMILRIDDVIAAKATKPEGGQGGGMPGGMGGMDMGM", "assay": "diffracted X-ray tracking (DXT), single molecule", "format": "binding", "conditions": "2 mM ATP; MOPS pH 7.0, 100 mM KCl, 5 mM MgCl2, about 60 °C; immobilised on gold, gold nanocrystal label", "data": [{"compound": "Nc1ncnc2c1ncn2[C@@H]1O[C@H](COP(=O)(O)OP(=O)(O)OP(=O)(O)O)[C@@H](O)[C@H]1O", "note": "[ATP]", "values": [{"measurement": "diffracted X-ray tracking (DXT), single molecule", "result": "Angular displacement in the χ direction was clearly activated by the addition of ATP."}]}]}
